Test results published in US20070225351A1, “Methods and compositions for controlling body weight and appetite” (priority 2002, published 2007).

Experiments:
[1] = target: norepinephrine transporter (Rattus norvegicus, UniProt Q63380); details: from Table 1
Procedure: Reactions were carried out in 50 mM TRIS-HCl (pH 7.4), containing 300 mM NaCl and 5 mM KCl at 0° C. to 4° C. for 4 hours. The reaction was terminated by rapid vacuum filtration onto glass fiber filters. Radioactivity trapped in the filters was determined and compared to control values in order to ascertain the interactions of the test compound with the norepinephrine uptake site.

serotonin transporter = target: T1, serotonin transporter (Rattus norvegicus, UniProt P31652); assay: Serotonin transporter binding assay, [3H]citalopram; details: from Table 2
T1 construct: The receptor source was rat forebrain membrane; from tissue; host or cells: rat forebrain membranes
T1 sequence (P31652 whole entry): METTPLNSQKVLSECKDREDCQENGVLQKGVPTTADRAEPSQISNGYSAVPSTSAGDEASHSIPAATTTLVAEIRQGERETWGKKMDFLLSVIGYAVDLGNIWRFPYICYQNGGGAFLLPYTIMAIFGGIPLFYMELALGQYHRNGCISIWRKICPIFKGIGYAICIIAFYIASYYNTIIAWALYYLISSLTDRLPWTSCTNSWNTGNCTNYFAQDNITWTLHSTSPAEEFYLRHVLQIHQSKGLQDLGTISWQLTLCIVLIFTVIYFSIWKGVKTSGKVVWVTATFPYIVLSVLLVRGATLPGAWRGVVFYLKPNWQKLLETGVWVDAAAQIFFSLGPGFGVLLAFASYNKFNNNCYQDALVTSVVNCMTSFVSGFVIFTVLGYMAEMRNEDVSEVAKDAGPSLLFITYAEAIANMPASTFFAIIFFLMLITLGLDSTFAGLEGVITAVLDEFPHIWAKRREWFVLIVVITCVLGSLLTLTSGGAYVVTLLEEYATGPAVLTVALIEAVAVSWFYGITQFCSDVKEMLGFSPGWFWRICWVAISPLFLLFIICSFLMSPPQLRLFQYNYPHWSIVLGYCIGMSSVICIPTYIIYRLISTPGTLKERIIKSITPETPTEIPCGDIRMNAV
Procedure: The reference compound and positive control were (±)-desmethylimipramine. […] Reactions were carried out in 50 mM TRIS-HCl (pH 7.4) containing 120 mM NaCl and 5 mM KCl at 25° C. for 60 minutes. The reaction was terminated by rapid vacuum filtration onto glass fiber filters. Radioactivity trapped in the filters was determined using liquid scintillation spectrometry and compared to control values in order to ascertain any interactions of test compound with the serotonin transporter binding site.

[2] = Toxicokinetic evaluation in rats; details: rat, in vivo; for AUC(0-t): Crl:CD(SD)IGS BR, po, 10 mg/kg/day, AUC0-24 h
Procedure: For toxicokinetic evaluation, all animals were observed twice daily for mortality and moribundity. Blood samples were collected from three animals/sex/group at 0 (pre-dose), 1, 2, 4, 8 and 24 hours after dose administration on study days 0 and 87. All toxicokinetic animals were euthanized and discarded following the final blood collection (study day 88).

in vivo = type: in vivo; details: female dogs
Procedure: Eighteen male and eighteen female beagle dogs were received from Ridglan Farms, Mt. Horeb, Wis. […] Each group consisted of four males and four females. All animals/sex/group were scheduled for the primary necropsy at the end of the 13-week treatment period.
The animals were observed twice daily for mortality and moribundity. Clinical examinations were performed daily at the time of dosing and approximately 1-2 and approximately 3 hours following dose administration. Detailed physical examinations were performed weekly. Clinical pathology evaluations (hematology, serum chemistry and urinalysis) were performed prior to the initiation of dose administration (study week-1) and prior to the scheduled necropsy (study week 13). Individual body weights were recorded weekly, beginning approximately two weeks prior to test article administration (study week-2). Mean body weights and mean body weight changes were calculated for each corresponding interval. Final body weights (fasted) were recorded prior to the scheduled necropsy. […] Gross lesions were also examined from the 2.0 and 6.0 mg/kg/day groups.

Chain of norepinephrine transporter (Q63380 1-617): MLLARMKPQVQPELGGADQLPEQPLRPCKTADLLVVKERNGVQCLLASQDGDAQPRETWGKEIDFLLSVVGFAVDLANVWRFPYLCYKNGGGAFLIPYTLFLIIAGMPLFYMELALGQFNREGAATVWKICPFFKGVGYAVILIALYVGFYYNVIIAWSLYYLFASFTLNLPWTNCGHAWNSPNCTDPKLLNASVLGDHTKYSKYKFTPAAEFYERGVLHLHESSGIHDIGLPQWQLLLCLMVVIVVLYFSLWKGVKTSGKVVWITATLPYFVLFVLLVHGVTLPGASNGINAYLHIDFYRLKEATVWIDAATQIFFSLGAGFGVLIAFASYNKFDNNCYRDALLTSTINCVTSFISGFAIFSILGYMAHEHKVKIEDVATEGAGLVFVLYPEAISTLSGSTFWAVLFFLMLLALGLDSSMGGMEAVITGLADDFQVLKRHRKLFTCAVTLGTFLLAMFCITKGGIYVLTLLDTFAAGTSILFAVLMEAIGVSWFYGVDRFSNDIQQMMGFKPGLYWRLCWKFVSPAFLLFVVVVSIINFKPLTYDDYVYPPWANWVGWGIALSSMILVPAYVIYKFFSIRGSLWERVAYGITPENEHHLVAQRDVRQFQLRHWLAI

For `Cl.Clc1ccc([C@@]23CNC[C@@H]2C3)cc1Cl` (single isomer, unassigned) [(+)-1-(3,4-dichlorophenyl)-3-azabicyclo[3.1.0]hexane hydrochloride], the “affinity for the norepinephrine uptake site compared with the (±) compound” value [1] was “significantly greater affinity”, the “affinity for the serotonin uptake site compared with the (±) compound” value (serotonin transporter) was “significantly greater affinity” and the AUC(0-t) ([2]; female) was 14400 ng·h/mL. The AUC(0-t) ([2]; male) was 8130 ng·h/mL, the exposure versus dose [2] was “increased dose-dependently” and the “mean total cumulative body weight change, lower than control” value (in vivo; 20 mg/kg/day, end of 13-week study) was 65%. The “mean food consumption, lower than control” value (in vivo; 20 mg/kg/day, first week of dose administration) was 23%, the “mean body weight, lower than control” value (in vivo; 20 mg/kg/day, study week 13) was 9% and the “weekly food consumption, MEAN” value (in vivo; 2.0 MG/KG/DAY group, WEEK −1 TO 0 (before dosing)) was 295. C/ANIMAL/DAY. The “weekly food consumption, MEAN” value (in vivo; 2.0 MG/KG/DAY, WEEK 0 TO 1) was 291. C/ANIMAL/DAY, the “weekly food consumption, MEAN” value (in vivo; 2.0 MG/KG/DAY, WEEK 1 TO 2) was 319. C/ANIMAL/DAY and the “weekly food consumption, MEAN” value (in vivo; 2.0 MG/KG/DAY, WEEK 2 TO 3) was 361. C/ANIMAL/DAY. For the same molecule, the “weekly food consumption, MEAN” value (in vivo; 2.0 MG/KG/DAY, WEEK 3 TO 4) was 358. C/ANIMAL/DAY, the “weekly food consumption, MEAN” value (in vivo; 2.0 MG/KG/DAY, WEEK 4 TO 5) was 369. C/ANIMAL/DAY and the “weekly food consumption, MEAN” value (in vivo; 2.0 MG/KG/DAY, WEEK 5 TO 6) was 360. C/ANIMAL/DAY. For the same molecule, the “weekly food consumption, MEAN” value (in vivo; 2.0 MG/KG/DAY, WEEK 6 TO 7) was 393. C/ANIMAL/DAY, the “weekly food consumption, MEAN” value (in vivo; 2.0 MG/KG/DAY, WEEK 7 TO 8) was 360. C/ANIMAL/DAY and the “weekly food consumption, MEAN” value (in vivo; 2.0 MG/KG/DAY, WEEK 8 TO 9) was 383. C/ANIMAL/DAY. The “weekly food consumption, MEAN” value (in vivo; 2.0 MG/KG/DAY, WEEK 9 TO 10) was 375. C/ANIMAL/DAY, the “weekly food consumption, MEAN” value (in vivo; 2.0 MG/KG/DAY, WEEK 10 TO 11) was 389. C/ANIMAL/DAY and the “weekly food consumption, MEAN” value (in vivo; 2.0 MG/KG/DAY, WEEK 12 TO 13) was 355. C/ANIMAL/DAY. The “weekly food consumption, MEAN” value (in vivo; 6.0 MG/KG/DAY group, WEEK −1 TO 0 (before dosing)) was 275. C/ANIMAL/DAY, the “weekly food consumption, MEAN” value (in vivo; 6.0 MG/KG/DAY, WEEK 0 TO 1) was 247. C/ANIMAL/DAY and the “weekly food consumption, MEAN” value (in vivo; 6.0 MG/KG/DAY, WEEK 1 TO 2) was 288. C/ANIMAL/DAY. The “weekly food consumption, MEAN” value (in vivo; 6.0 MG/KG/DAY, WEEK 2 TO 3) was 307. C/ANIMAL/DAY, the “weekly food consumption, MEAN” value (in vivo; 6.0 MG/KG/DAY, WEEK 3 TO 4) was 307. C/ANIMAL/DAY and the “weekly food consumption, MEAN” value (in vivo; 6.0 MG/KG/DAY, WEEK 4 TO 5) was 350. C/ANIMAL/DAY. The “weekly food consumption, MEAN” value (in vivo; 6.0 MG/KG/DAY, WEEK 5 TO 6) was 374. C/ANIMAL/DAY, the “weekly food consumption, MEAN” value (in vivo; 6.0 MG/KG/DAY, WEEK 6 TO 7) was 381. C/ANIMAL/DAY and the “weekly food consumption, MEAN” value (in vivo; 6.0 MG/KG/DAY, WEEK 7 TO 8) was 356. C/ANIMAL/DAY. For the same molecule, the “weekly food consumption, MEAN” value (in vivo; 6.0 MG/KG/DAY, WEEK 8 TO 9) was 368. C/ANIMAL/DAY, the “weekly food consumption, MEAN” value (in vivo; 6.0 MG/KG/DAY, WEEK 9 TO 10) was 360. C/ANIMAL/DAY and the “weekly food consumption, MEAN” value (in vivo; 6.0 MG/KG/DAY, WEEK 10 TO 11) was 367. C/ANIMAL/DAY. The “weekly food consumption, MEAN” value (in vivo; 6.0 MG/KG/DAY, WEEK 11 TO 12) was 357. C/ANIMAL/DAY, the “weekly food consumption, MEAN” value (in vivo; 6.0 MG/KG/DAY, WEEK 12 TO 13) was 331. C/ANIMAL/DAY and the “weekly food consumption, MEAN” value (in vivo; 20 MG/KG/DAY group, WEEK −1 TO 0 (before dosing)) was 275. C/ANIMAL/DAY. The “weekly food consumption, MEAN” value (in vivo; 20 MG/KG/DAY, WEEK 0 TO 1) was 212.* C/ANIMAL/DAY, the “weekly food consumption, MEAN” value (in vivo; 20 MG/KG/DAY, WEEK 1 TO 2) was 295. C/ANIMAL/DAY and the “weekly food consumption, MEAN” value (in vivo; 20 MG/KG/DAY, WEEK 2 TO 3) was 314. C/ANIMAL/DAY. The “weekly food consumption, MEAN” value (in vivo; 20 MG/KG/DAY, WEEK 3 TO 4) was 337. C/ANIMAL/DAY, the “weekly food consumption, MEAN” value (in vivo; 20 MG/KG/DAY, WEEK 4 TO 5) was 356. C/ANIMAL/DAY and the “weekly food consumption, MEAN” value (in vivo; 20 MG/KG/DAY, WEEK 5 TO 6) was 331. C/ANIMAL/DAY. The “weekly food consumption, MEAN” value (in vivo; 20 MG/KG/DAY, WEEK 6 TO 7) was 328. C/ANIMAL/DAY, the “weekly food consumption, MEAN” value (in vivo; 20 MG/KG/DAY, WEEK 7 TO 8) was 325. C/ANIMAL/DAY and the “weekly food consumption, MEAN” value (in vivo; 20 MG/KG/DAY, WEEK 8 TO 9) was 375. C/ANIMAL/DAY. The “weekly food consumption, MEAN” value (in vivo; 20 MG/KG/DAY, WEEK 9 TO 10) was 322. C/ANIMAL/DAY and the “weekly food consumption, MEAN” value (in vivo; 20 MG/KG/DAY, WEEK 10 TO 11) was 350. C/ANIMAL/DAY.
